Our source for the Ki values is ChEMBL document CHEMBL1143346, “Solid-phase parallel synthesis and SAR of 4-amidofuran-3-one inhibitors of cathepsin S: effect of sulfonamides P3 substituents on potency and selectivity” (Bioorg Med Chem, 2009).

One test concerns the target T1, Cathepsin K (Homo sapiens, UniProt P43235).
T1 sequence (P43235 whole entry): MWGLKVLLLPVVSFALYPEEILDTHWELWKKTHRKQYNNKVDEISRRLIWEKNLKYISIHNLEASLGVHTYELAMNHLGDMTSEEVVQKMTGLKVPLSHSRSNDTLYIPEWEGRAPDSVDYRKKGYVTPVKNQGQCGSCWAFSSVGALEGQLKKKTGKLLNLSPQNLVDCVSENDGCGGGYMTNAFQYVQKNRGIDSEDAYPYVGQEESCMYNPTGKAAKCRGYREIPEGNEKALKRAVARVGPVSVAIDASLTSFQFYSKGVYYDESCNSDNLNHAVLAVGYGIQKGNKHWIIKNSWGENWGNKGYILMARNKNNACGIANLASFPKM
The test can be described thus: Inhibition of human recombinant cathepsin K expressed in baculovirus by fluorescence assay.

For the next test, the target named is Procathepsin L (Homo sapiens, UniProt P07711). The test is described as follows: Inhibition of human cathepsin L by fluorescence assay.
The target in the next test is Cathepsin S (Homo sapiens, UniProt P25774). The test can be described thus: Inhibition of human recombinant cathepsin S expressed in baculovirus by fluorescence assay.

In general, Ki refers to a dissociation constant, usually derived from enzyme kinetics or from competition with a known ligand.

Procathepsin L, sequence (P07711 whole entry): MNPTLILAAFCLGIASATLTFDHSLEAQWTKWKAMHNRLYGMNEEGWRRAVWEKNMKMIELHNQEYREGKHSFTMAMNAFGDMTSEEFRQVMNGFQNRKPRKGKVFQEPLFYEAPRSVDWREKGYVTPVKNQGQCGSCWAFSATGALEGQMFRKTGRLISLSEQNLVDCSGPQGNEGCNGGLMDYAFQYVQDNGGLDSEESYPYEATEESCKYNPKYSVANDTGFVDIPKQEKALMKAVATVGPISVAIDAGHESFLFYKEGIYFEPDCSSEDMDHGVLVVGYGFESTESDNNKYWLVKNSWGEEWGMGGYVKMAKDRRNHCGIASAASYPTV
Cathepsin S, sequence (P25774 whole entry): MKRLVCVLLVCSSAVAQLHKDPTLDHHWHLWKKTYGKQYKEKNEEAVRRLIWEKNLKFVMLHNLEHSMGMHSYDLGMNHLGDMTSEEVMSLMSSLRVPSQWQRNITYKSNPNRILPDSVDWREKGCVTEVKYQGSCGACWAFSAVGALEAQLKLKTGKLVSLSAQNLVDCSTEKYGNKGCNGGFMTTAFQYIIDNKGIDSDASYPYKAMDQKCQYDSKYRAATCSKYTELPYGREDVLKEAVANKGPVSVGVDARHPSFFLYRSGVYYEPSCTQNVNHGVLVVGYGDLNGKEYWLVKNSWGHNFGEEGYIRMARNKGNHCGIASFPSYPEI

On to `CC[C@@H]1OCC(=O)[C@H]1NC(=O)[C@H](CC1(C)CCCC1)NC(=O)c1ccc(NS(=O)(=O)c2cnccc2C)cc1`, for which the values for the Ki on Cathepsin K, on Procathepsin L and on Cathepsin S were 260 nM, 8700 nM and 0.9 nM, respectively.
For `CC[C@@H]1OCC(=O)[C@H]1NC(=O)[C@H](CC1(C)CCCC1)NC(=O)c1ccc(NS(=O)(=O)c2ccncc2)cc1` the same measures were 1100 nM, 13000 nM and 2.7 nM.
In the same order, the values of `CC[C@@H]1OCC(=O)[C@H]1NC(=O)[C@H](CC1(C)CCCC1)NC(=O)c1ccc(NS(C)(=O)=O)c(C(C)=O)c1` are 750 nM, 9500 nM and 57 nM.
In the same order, the values of `CC[C@@H]1OCC(=O)[C@H]1NC(=O)[C@H](CC1(C)CCCC1)NC(=O)c1ccc(NS(C)(=O)=O)c(F)c1` are 700 nM, 7800 nM and 16 nM.
Consider `CC[C@@H]1OCC(=O)[C@H]1NC(=O)[C@H](CC1(C)CCCC1)NC(=O)c1ccc(NS(=O)(=O)c2ccccc2F)cc1`, for which the Ki on Cathepsin K amounted to 980 nM; on Procathepsin L, 11000 nM; on Cathepsin S it was 3.8 nM.
